Where two headings read alike, the source gives them in different places.
How the values were obtained:
CYP3A4 [1] = test: in vitro; settings: for IC50: microsomes
Method: (§1) (OHBUP-[D6]) and 5 nM 4′-hydroxydiclofenac-[^13C6] (OHDIC-[^13C6]) as internal standards (ISs). […]
(§2) standard addition experiments. Each group included four concentration levels. For the PK […]
(§3) The probe compounds, viz. […]
(§4) chosen after incubating all the recruited substrates. In order to assure the linear relationship […]
(§5) The incubation system was also optimized in terms of substrate concentrations. The substrates concentrations of […]

CYP3A4 [2] = settings: cited from earlier work
CYP2D6 = test: in vitro; settings: microsomes
Method: as §1, §2, §3, §4, §5

CYP2B6 = test: in vitro; settings: microsomes
Method: as §1, §2, §3, §4, §5

CYP2C9 = test: in vitro; settings: microsomes
Method: as §1, §2, §3, §4, §5

CYP2C19 = test: in vitro; settings: microsomes
Method: as §1, §2, §3, §4, §5

CYP450s = test: In vitro cocktail CYP450 activity assay, isozyme not given; type: in vitro ADME, SD rat
Method: (OHBUP-[D6]) and 5 nM 4′-hydroxydiclofenac-[^13C6] (OHDIC-[^13C6]) as internal standards (ISs).

CYP1A2 [3] = molecular target: T1, CYP1A2 (Rattus norvegicus, UniProt P04799); test: In vitro cocktail CYP450 activity assay in rat liver microsomes, CYP1A2 (phenacetin probe); settings: microsomes
T1 sequence (P04799 1-513): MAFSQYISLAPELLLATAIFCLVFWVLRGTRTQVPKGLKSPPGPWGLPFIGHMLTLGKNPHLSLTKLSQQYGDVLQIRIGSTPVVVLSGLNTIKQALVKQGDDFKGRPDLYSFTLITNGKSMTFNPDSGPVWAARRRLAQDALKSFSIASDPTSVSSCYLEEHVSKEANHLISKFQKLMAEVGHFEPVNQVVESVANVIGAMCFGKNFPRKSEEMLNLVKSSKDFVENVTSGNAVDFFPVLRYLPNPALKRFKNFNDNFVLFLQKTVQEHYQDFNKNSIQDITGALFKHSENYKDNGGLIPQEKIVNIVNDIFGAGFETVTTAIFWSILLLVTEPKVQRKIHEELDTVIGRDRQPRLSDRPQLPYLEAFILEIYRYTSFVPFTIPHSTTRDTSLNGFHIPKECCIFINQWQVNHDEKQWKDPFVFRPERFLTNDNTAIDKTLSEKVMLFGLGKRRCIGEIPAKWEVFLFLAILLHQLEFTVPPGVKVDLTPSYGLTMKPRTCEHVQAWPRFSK
Method: as §1, §2, §3, §4, §5

CYP2E1 = CYP2E1 (Rattus norvegicus, UniProt P05182); settings: microsomes
Sequence of CYP2E1 (P05182 whole entry): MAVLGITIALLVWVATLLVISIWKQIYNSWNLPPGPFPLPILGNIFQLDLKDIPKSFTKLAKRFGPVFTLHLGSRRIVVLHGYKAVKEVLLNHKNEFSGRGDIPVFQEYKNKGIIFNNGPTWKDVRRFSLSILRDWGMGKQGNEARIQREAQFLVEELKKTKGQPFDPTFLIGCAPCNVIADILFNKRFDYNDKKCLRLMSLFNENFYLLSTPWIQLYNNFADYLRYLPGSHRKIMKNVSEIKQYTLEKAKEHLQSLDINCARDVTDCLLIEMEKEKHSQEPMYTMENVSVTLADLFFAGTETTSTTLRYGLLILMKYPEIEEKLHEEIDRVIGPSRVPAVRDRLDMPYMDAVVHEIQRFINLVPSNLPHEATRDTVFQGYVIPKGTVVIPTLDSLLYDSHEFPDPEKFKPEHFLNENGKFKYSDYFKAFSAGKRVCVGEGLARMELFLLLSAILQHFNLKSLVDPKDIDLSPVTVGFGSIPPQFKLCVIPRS

CYP1A2 [4] = molecular target: T1, CYP1A2; settings: read-out: Reported Km; probe substrate PHE, CYP1A2, literature range ref 9; cited from earlier work

## Cc1ncc2n1-c1ccc(Cl)cc1C(c1ccccc1F)=NC2 [MID, midazolam, reference compound]
CYP3A4 [1]; SD, rat, pH 7.4
  Km: 11 ± 1.51 µM
CYP3A4 [2]; read-out: Reported Km, probe substrate MID, CYP3A4, literature range ref 9
  Km: 1 to 14 µM

## O=c1c(O[C@@H]2O[C@H](CO)[C@@H](O)[C@H](O)[C@H]2O)c(-c2ccc(O)cc2)oc2cc(O)c(O[C@@H]3O[C@H](CO)[C@@H](O)[C@H](O)[C@H]3O)c(O)c12 [A13, 6-hydroxykaempferol-3,6-di-O-glucoside]
CYP3A4 [1]
  IC50: 58.5 ± 0.66 µM
CYP2D6
  IC50: 37.1 ± 8.85 µM
CYP2B6
  IC50: 21 ± 2.31 µM
CYP2C9
  IC50: 93 ± 2.56 µM
CYP2C19
  IC50: 48.9 ± 4.36 µM
CYP450s
  IC50: ≤ 15 µM
CYP1A2 [3]
  IC50: 13.3 ± 2.27 µM
CYP2E1
  IC50: 10.2 ± 0.65 µM

## CCOc1ccc(NC(C)=O)cc1 [PHE, phenacetin]
CYP1A2 [4]
  Km: 1.7 to 152 µM

— article PMC7076352 (Pharmaceutics, 2020)
